Assay results reported in paper PMC8119466, “A screen of FDA-approved drugs identifies inhibitors of protein tyrosine phosphatase 4A3 (PTP4A3 or PRL-3)” (Scientific Reports, 2021).
Counter-ions that a name gives are not always drawn. Like-named read-outs stand apart in the source and are kept apart here.

How the values were obtained:
Format in all cases: biochemical
[1] = target: T1, recombinant PRL-2 (Homo sapiens, UniProt Q12974); test: In vitro phosphatase assay (DiFMUP hydrolysis), PRL-2;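 note: PRL-2 activity read as DiFMUP hydrolysis after 20 min at room temperature with drug, enzyme first pre-reduced at 4 °C for 20 min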
T1 construct: 6xHis (N, cleaved yes); made in house; host or cells: E. coli One Shot BL21 Star
T1 sequence (Q12974 1-167): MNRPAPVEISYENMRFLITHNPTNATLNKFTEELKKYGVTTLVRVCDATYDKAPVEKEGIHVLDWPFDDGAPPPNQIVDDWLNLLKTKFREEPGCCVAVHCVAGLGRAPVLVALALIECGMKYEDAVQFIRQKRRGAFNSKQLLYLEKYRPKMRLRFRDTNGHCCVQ

[2] = target: T2, recombinant PRL-1 (Homo sapiens, UniProt Q93096); test: In vitro phosphatase assay (DiFMUP hydrolysis), PRL-1; note: test concentration or dose not given here
T2 construct: 6xHis (N, cleaved yes); made in house; host or cells: E. coli One Shot BL21 Star
T2 sequence (Q93096 1-173): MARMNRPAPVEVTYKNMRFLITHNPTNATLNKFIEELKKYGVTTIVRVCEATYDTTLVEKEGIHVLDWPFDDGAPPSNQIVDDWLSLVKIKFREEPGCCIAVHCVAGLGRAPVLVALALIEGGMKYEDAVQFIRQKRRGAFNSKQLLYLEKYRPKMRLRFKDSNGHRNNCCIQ

[3] = target: T3, recombinant PRL-3 (Homo sapiens, UniProt O75365); test: In vitro phosphatase assay (DiFMUP hydrolysis), PRL-3; note: test concentration or dose not given here
T3 construct: 6xHis (N, cleaved yes); made in house; host or cells: E. coli One Shot BL21 Star

[4] = FDA-approved drug screen, compared to DMSO

T3 sequence (O75365 whole entry): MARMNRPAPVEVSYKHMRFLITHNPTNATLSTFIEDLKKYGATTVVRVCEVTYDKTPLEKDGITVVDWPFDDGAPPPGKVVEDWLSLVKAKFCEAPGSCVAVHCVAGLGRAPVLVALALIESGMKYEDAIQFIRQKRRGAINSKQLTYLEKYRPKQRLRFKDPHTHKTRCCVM

Row | SMILES | % Phosphatase Activity (compared to DMSO) PRL-2 [1, 4] [%] | % Phosphatase Activity (compared to DMSO) PRL-1 [2, 4] [%] | % Phosphatase Activity (compared to DMSO) PRL-3 [3, 4] [%] | % Phosphatase Activity (compared to DMSO) PRL-2 [1] [%] | % Phosphatase Activity (compared to DMSO) PRL-1 [2] [%] | % Phosphatase Activity (compared to DMSO) PRL-3 [3] [%]
1 | CCN(CCO)CCCOc1ccc2c(Nc3cc(CC(=O)Nc4cccc(F)c4)[nH]n3)ncnc2c1 [Barasertib (AZD1152-HQPA)] | 95 | 91 | 76 |  |  | 
2 | CNC(=O)[C@H](Cc1ccccc1)NC(=O)[C@H](CC(C)C)[C@H](CSc1cccs1)C(=O)NO [Batimastat (BB-94)] | 79 | 88 | 89 |  |  | 
3 | CCC(=O)OCC(=O)[C@@]1(OC(=O)CC)[C@@H](C)C[C@H]2[C@@H]3CCC4=CC(=O)C=C[C@]4(C)[C@@]3(Cl)[C@@H](O)C[C@@]21C [Beclomethasone dipropionate] | 91 | 98 | 90 |  |  | 
4 | O=C(/C=C/c1cccc(S(=O)(=O)Nc2ccccc2)c1)NO [Belinostat (PXD101)] | 104 | 98 | 80 |  |  | 
5 | CCOC(=O)[C@H](CCc1ccccc1)N[C@H]1CCc2ccccc2N(CC(=O)O)C1=O [Benazepril HCl] | 80 | 91 | 78 |  |  | 
6 | Cl.Cn1c(CCCC(=O)O)nc2cc(N(CCCl)CCCl)ccc21 [Bendamustine HCl] | 128 | 122 | 79 |  |  | 
7 | NC(CO)C(=O)NNCc1ccc(O)c(O)c1O (stereo not drawn) [Benserazide HCl] | 99 | 103 | 68 |  |  | 
8 | CCc1oc2ccccc2c1C(=O)c1cc(Br)c(O)c(Br)c1 [Benzbromarone] | 56 | 63 | 51 |  |  | 
9 | CCOC(=O)c1ccc(N)cc1.Cl [Benzocaine hydrochloride] | 102 | 100 | 84 |  |  | 
10 | CCOC(=O)c1ccc(N)cc1 [Benzocaine] | 98 | 87 | 84 |  |  | 
11 | NS(=O)(=O)c1cc2c(cc1Cl)N=C(CSCc1ccccc1)NS2(=O)=O [Benzthiazide] | 115 | 111 | 99 |  |  | 
12 | CN1[C@@H]2CC[C@H]1C[C@@H](OC(c1ccccc1)c1ccccc1)C2 [Benztropine mesylate] | 106 | 94 | 89 |  |  | 
13 | CN(C)CCCOc1nn(Cc2ccccc2)c2ccccc12 [Benzydamine HCl] | 116 | 100 | 77 |  |  | 
14 | OCc1ccccc1 [Benzyl alcohol] | 91 | 94 | 82 |  |  | 
15 | O=C(OCc1ccccc1)c1ccccc1 [Benzyl benzoate] | 75 | 83 | 77 |  |  | 
16 | C[N+](C)(CCOc1ccccc1)Cc1ccccc1.O=C([O-])c1cc2ccccc2cc1O [Bephenium Hydroxynaphthoate] | 103 | 108 | 92 |  |  | 
17 | CNCCc1ccccn1.Cl.Cl [Betahistine 2HCl] | 96 | 93 | 87 |  |  | 
18 | CCC(=O)OCC(=O)[C@@]1(OC(=O)CC)[C@@H](C)C[C@H]2[C@@H]3CCC4=CC(=O)C=C[C@]4(C)[C@@]3(F)[C@@H](O)C[C@@]21C [Betamethasone Dipropionate] | 83 | 92 | 84 |  |  | 
19 | CCCCC(=O)O[C@]1(C(=O)CO)[C@@H](C)C[C@H]2[C@@H]3CCC4=CC(=O)C=C[C@]4(C)[C@@]3(F)[C@@H](O)C[C@@]21C [Betamethasone valerate (Betnovate)] | 83 | 97 | 79 |  |  | 
20 | C[C@H]1C[C@H]2[C@@H]3CCC4=CC(=O)C=C[C@]4(C)[C@@]3(F)[C@@H](O)C[C@]2(C)[C@@]1(O)C(=O)CO [Betamethasone] | 88 | 95 | 72 |  |  | 
21 | O=C(O)CCNC(=O)c1ccccc1 [Betamipron] | 95 | 98 | 75 |  |  | 
22 | CC(C)NCC(O)COc1ccc(CCOCC2CC2)cc1.Cl (stereo not drawn) [Betaxolol hydrochloride (Betoptic)] |  |  |  | 99 | 84 | 97
23 | CC(C)NCC(O)COc1ccc(CCOCC2CC2)cc1 (stereo not drawn) [Betaxolol] |  |  |  | 124 | 109 | 80
24 | CC(C[N+](C)(C)C)OC(N)=O (stereo not drawn) [Bethanechol chloride] | 119 | 104 | 77 |  |  | 
25 | C=C(c1ccc(C(=O)O)cc1)c1cc2c(cc1C)C(C)(C)CCC2(C)C [Bexarotene] | 89 | 81 | 58 |  |  | 
26 | CC(C)(Oc1ccc(CCNC(=O)c2ccc(Cl)cc2)cc1)C(=O)O [Bezafibrate] | 119 | 123 | 90 |  |  | 
